Measured values from ChEMBL document CHEMBL3885861, “Open TG-GATES”.

Species: Rattus norvegicus
Experiment: Open TG-GATES - Regimen: Single
Format: toxicity, organism-based, Sprague-Dawley
Parameters: regimen Single, gender Male, age 6 weeks
Settings: in vivo, po, 300 mg/kg, route gavage, dose level Middle; for APTT / Bas / Eos / Fbg / Hb / Ht / Lym / MCH / MCHC / MCV / Mono / Neu / PT / Plat / RBC / Ret / WBC: tissue Blood; for KIDNEY_L / KIDNEY_R / KIDNEY_TOTAL: tissue Kidney; for LIVER: tissue Liver; for A/G / ALP / ALT / AST / BUN / CRE / Ca / Cl / DBIL / GLC / IP / K / LDH / Na / PL / RALB / TBIL / TC / TG / TP / gamma-GTP: tissue Plasma

SMILES: O=C(OC[C@H]1O[C@@H](OC(=O)c2cc(O)c(O)c(OC(=O)c3cc(O)c(O)c(O)c3)c2)[C@H](OC(=O)c2cc(O)c(O)c(OC(=O)c3cc(O)c(O)c(O)c3)c2)[C@@H](OC(=O)c2cc(O)c(O)c(OC(=O)c3cc(O)c(O)c(O)c3)c2)[C@@H]1OC(=O)c1cc(O)c(O)c(OC(=O)c2cc(O)c(O)c(O)c2)c1)c1cc(O)c(O)c(OC(=O)c2cc(O)c(O)c(O)c2)c1 [TANNIC ACID]
- TERMINAL_BW (3 h): 187.9 g
- APTT (3 h): 16.5 s
- Bas (3 h): 0%
- Eos (3 h): 1%
- Fbg (3 h): 212 mg/dL
- Hb (3 h): 12.7 g/dL
- Ht (3 h): 37.9%
- Lym (3 h): 78.6%
- MCH (3 h): 21.9 pg
- MCHC (3 h): 33.4%
- MCV (3 h): 65.5 fL
- Mono (3 h): 7.6%
- Neu (3 h): 13.4%
- PT (3 h): 11.6 s
- Plat (3 h): 101.9 x10_4/uL
- RBC (3 h): 579.2 x10_4/ul
- Ret (3 h): 9.9%
- WBC (3 h): 113.5 x10_2/uL
- KIDNEY_L (3 h): 0.9 g
- KIDNEY_R (3 h): 0.9 g
- KIDNEY_TOTAL (3 h): 1.8 g
- LIVER (3 h): 8.5 g
- A/G (3 h): 2.2
- ALP (3 h): 1029.8 IU/L
- ALT (3 h): 37.6 IU/L
- AST (3 h): 68.6 IU/L
- BUN (3 h): 13.6 mg/dL
- CRE (3 h): 0.5 mg/dL
- Ca (3 h): 10.7 mg/dL
- Cl (3 h): 105 meq/L
- DBIL (3 h): 0.02 mg/dL
- GLC (3 h): 198 mg/dL
- IP (3 h): 10.6 mg/dL
- K (3 h): 4.7 meq/L
- LDH (3 h): 85.8 IU/L
- Na (3 h): 139.6 meq/L
- PL (3 h): 148.4 mg/dL
- RALB (3 h): 3.7 g/dL
- TBIL (3 h): 0.5 mg/dL
- TC (3 h): 81.6 mg/dL
- TG (3 h): 42.4 mg/dL
- TP (3 h): 5.3 g/dL
- gamma-GTP (3 h): 1.2 IU/L
- TERMINAL_BW (6 h): 184.2 g
- APTT (6 h): 16.5 s
- Bas (6 h): 0%
- Eos (6 h): 1%
- Fbg (6 h): 214.4 mg/dL
- Hb (6 h): 13 g/dL
- Ht (6 h): 39.1%
- Lym (6 h): 75.4%
- MCH (6 h): 22 pg
- MCHC (6 h): 33.3%
- MCV (6 h): 66.1 fL
- Mono (6 h): 8.6%
- Neu (6 h): 15.2%
- PT (6 h): 12 s
- Plat (6 h): 112.5 x10_4/uL
- RBC (6 h): 591.4 x10_4/ul
- Ret (6 h): 9.6%
- WBC (6 h): 93 x10_2/uL
- KIDNEY_L (6 h): 0.9 g
- KIDNEY_R (6 h): 0.9 g
- KIDNEY_TOTAL (6 h): 1.8 g
- LIVER (6 h): 8.2 g
- A/G (6 h): 1.9
- ALP (6 h): 784.6 IU/L
- ALT (6 h): 38.4 IU/L
- AST (6 h): 67.2 IU/L
- BUN (6 h): 12.2 mg/dL
- CRE (6 h): 0.5 mg/dL
- Ca (6 h): 10.6 mg/dL
- Cl (6 h): 105.6 meq/L
- DBIL (6 h): 0.03 mg/dL
- GLC (6 h): 184.2 mg/dL
- IP (6 h): 10.2 mg/dL
- K (6 h): 4.8 meq/L
- LDH (6 h): 106.8 IU/L
- Na (6 h): 139.2 meq/L
- PL (6 h): 133 mg/dL
- RALB (6 h): 3.4 g/dL
- TBIL (6 h): 0.6 mg/dL
- TC (6 h): 74.4 mg/dL
- TG (6 h): 32 mg/dL
- TP (6 h): 5.2 g/dL
- gamma-GTP (6 h): 1.4 IU/L
- TERMINAL_BW (9 h): 182 g
- APTT (9 h): 16.4 s
- Bas (9 h): 0%
- Eos (9 h): 1%
- Fbg (9 h): 219.8 mg/dL
- Hb (9 h): 13 g/dL
- Ht (9 h): 39%
- Lym (9 h): 74.8%
- MCH (9 h): 21.9 pg
- MCHC (9 h): 33.3%
- MCV (9 h): 65.9 fL
- Mono (9 h): 6.8%
- Neu (9 h): 17.2%
- PT (9 h): 12.1 s
- Plat (9 h): 122.2 x10_4/uL
- RBC (9 h): 592.8 x10_4/ul
- Ret (9 h): 11%
- WBC (9 h): 92.9 x10_2/uL
- KIDNEY_L (9 h): 0.8 g
- KIDNEY_R (9 h): 0.8 g
- KIDNEY_TOTAL (9 h): 1.6 g
- LIVER (9 h): 7.5 g
- A/G (9 h): 2.1
- ALP (9 h): 836.4 IU/L
- ALT (9 h): 35 IU/L
- AST (9 h): 60.6 IU/L
- BUN (9 h): 12.6 mg/dL
- CRE (9 h): 0.4 mg/dL
- Ca (9 h): 10.4 mg/dL
- Cl (9 h): 105.4 meq/L
- DBIL (9 h): 0.034 mg/dL
- GLC (9 h): 191.4 mg/dL
- IP (9 h): 10 mg/dL
- K (9 h): 5.1 meq/L
- LDH (9 h): 92.2 IU/L
- Na (9 h): 137.2 meq/L
- PL (9 h): 126.8 mg/dL
- RALB (9 h): 3.7 g/dL
- TBIL (9 h): 0.5 mg/dL
- TC (9 h): 70.4 mg/dL
- TG (9 h): 32.4 mg/dL
- TP (9 h): 5.4 g/dL
- gamma-GTP (9 h): 1.8 IU/L
- TERMINAL_BW (24 h): 201.5 g
- APTT (24 h): 15.9 s
- Bas (24 h): 0%
- Eos (24 h): 0.8%
- Fbg (24 h): 217.8 mg/dL
- Hb (24 h): 13 g/dL
- Ht (24 h): 38.9%
- Lym (24 h): 75%
- MCH (24 h): 22 pg
- MCHC (24 h): 33.4%
- MCV (24 h): 65.8 fL
- Mono (24 h): 8.2%
- Neu (24 h): 16.2%
- PT (24 h): 11.7 s
- Plat (24 h): 110.3 x10_4/uL
- RBC (24 h): 591.6 x10_4/ul
- Ret (24 h): 9.5%
- WBC (24 h): 114.2 x10_2/uL
- KIDNEY_L (24 h): 0.9 g
- KIDNEY_R (24 h): 0.9 g
- KIDNEY_TOTAL (24 h): 1.8 g
- LIVER (24 h): 10.2 g
- A/G (24 h): 1.7
- ALP (24 h): 852.4 IU/L
- ALT (24 h): 44.4 IU/L
- AST (24 h): 67.8 IU/L
- BUN (24 h): 18.4 mg/dL
- CRE (24 h): 0.5 mg/dL
- Ca (24 h): 10.8 mg/dL
- Cl (24 h): 103.8 meq/L
- DBIL (24 h): 0.002 mg/dL
- GLC (24 h): 193.8 mg/dL
- IP (24 h): 9.1 mg/dL
- K (24 h): 4.4 meq/L
- LDH (24 h): 109.6 IU/L
- Na (24 h): 138.8 meq/L
- PL (24 h): 139 mg/dL
- RALB (24 h): 3.5 g/dL
- TBIL (24 h): 0.3 mg/dL
- TC (24 h): 75.2 mg/dL
- TG (24 h): 103.8 mg/dL
- TP (24 h): 5.6 g/dL
- gamma-GTP (24 h): 1.2 IU/L
